As usually defined, the IC50 is the concentration that inhibits the measured activity by half.

Each structure is given as a SMILES string.

Our source for the IC50 values is ChEMBL document CHEMBL1149255, “An in silico approach to discovering novel inhibitors of human sirtuin type 2” (J Med Chem, 2004).

The target of this test is T1, NAD-dependent protein deacetylase sirtuin-2 (Homo sapiens, UniProt Q8IXJ6).
T1 sequence (Q8IXJ6 whole entry): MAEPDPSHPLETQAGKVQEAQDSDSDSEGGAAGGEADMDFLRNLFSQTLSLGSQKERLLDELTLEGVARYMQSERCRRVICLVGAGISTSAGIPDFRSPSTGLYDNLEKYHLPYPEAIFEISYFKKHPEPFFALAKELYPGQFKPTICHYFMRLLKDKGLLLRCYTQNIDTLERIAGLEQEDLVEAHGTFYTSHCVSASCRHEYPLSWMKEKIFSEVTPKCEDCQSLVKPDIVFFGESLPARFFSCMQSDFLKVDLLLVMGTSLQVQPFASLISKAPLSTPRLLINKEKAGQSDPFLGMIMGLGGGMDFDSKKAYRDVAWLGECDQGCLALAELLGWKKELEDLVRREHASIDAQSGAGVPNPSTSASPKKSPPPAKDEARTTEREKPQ
The test is described as follows: Inhibition of human recombinant GST-tagged SIRT2 by histone deacetylase assay.
`Cc1ncc(CSc2ccccc2/N=C/c2cc(Cl)cc(Cl)c2O)c(CO)c1O`: the IC50 came out at 74.3 µM.

As to `CC(C)(C)OC(=O)NC(Cc1ccccc1)C(=O)OCc1ccc(CC(=O)O)cc1` (stereo not given), the half-inhibitory concentration (IC50) was greater than 1000 µM.

Turning to `Oc1ccc(/C=N/c2ccc(Cc3ccc(/N=C/c4ccc(O)c(O)c4)cc3)cc2)cc1O`, the IC50 was greater than 1000 µM.

`O=c1cc(CSc2n[nH]c(=O)n2C2Cc3ccccc3C2)c2ccc(O)cc2o1`: the half-inhibitory concentration (IC50) is greater than 300 µM.

For `COc1cc(NC(=O)c2ccccc2)c(C)cc1NC(=O)CC(CC(=O)O)c1ccccc1` (stereo not given), the IC50 was greater than 1000 µM.

On to `Oc1ccccc1/C=N/c1ccc(OCCCCOc2ccc(/N=C/c3ccccc3O)cc2)cc1`, for which the IC50 was greater than 1000 µM.

As to `O=C(Nc1ccc(COc2ccccc2)cc1)Nc1cccc(C(=O)O)c1`, the IC50 was greater than 300 µM.

Consider `CN(CCO)c1ccc(C(=O)c2ccc(N(C)CCO)cc2)cc1`, for which the IC50 is greater than 1000 µM.

Regarding `Oc1ccccc1/C=N/c1ccc(OCCCOc2ccc(/N=C/c3ccccc3O)cc2)cc1`, the IC50 is greater than 1000 µM.

Turning to `Oc1ccc(CCc2nnc(S)n2-c2ccc(Cl)cc2)cc1`, the 50% inhibitory concentration (IC50) was greater than 300 µM.

For `O=C(O)CSCC(=O)N1CCN(c2cc(C(F)(F)F)nc3ccccc23)CC1`, the IC50 is greater than 1000 µM.

Consider `O=C(O)CCCCOc1ccc2oc3ccccc3c(=O)c2c1`, for which the IC50 is greater than 1000 µM.

In the case of `O=C1c2ccccc2C(=O)c2c(NCCc3ccc(O)cc3)ccc(NCCc3ccc(O)cc3)c21`, the IC50 was determined as 56.7 µM.

As for `O=C(O)/C=C/C(=O)Nc1cccc(NC(=O)c2ccccc2O)c1`, the IC50 was greater than 1000 µM.

Take `O=C1c2cccc3c(SCCO)ccc(c23)C(=O)N1CCc1ccccn1`: the IC50 was greater than 1000 µM.
